Read-outs that look alike come from different tables or passages of the source.
Experiments:
human Factor Xa (fXa) = target: T1, human Factor Xa (fXa) (Homo sapiens, UniProt P00742); experiment: Inhibition of serine protease activity, factor Xa, chromogenic substrate Pefachrome Xa; format: biochemical; conditions: 2 nM human Factor Xa, 300 μM substrate, pH 7.5
T1 construct: purchased Haematologic Technologies Inc. (Essex Junction, Vt.)
Protocol: (§1) The enzymes factor Xa (fXa), thrombin (factor IIa or fIIa), and trypsin were purchased from Haematologic Technologies Inc. (Essex Junction, Vt.). The substrates Pefachromes Xa, Th, and Try were purchased from Centerchem Inc. (Stamford, Conn.). Varying concentrations of the sulfonamide compounds were incubated for 30 min at room temperature with purified activated human enzyme in the appropriate buffer. Various concentrations of the corresponding synthetic substrate were added, and activity was measured at 37° C. by monitoring absorbance at 405 nm for 15 min with a Flurostar Optima plate reader. […] For controls, the appropriate percentage of solvent was used instead of test compound. The specific activity (ΔA405/min/nM protein), and the percent activity was calculated for each data point. The IC50 was calculated by linear regression of log[test compound] vs. % activity. The enzyme activity of the sulfonamide compound was determined using the Enzyme Kinetics Module of Sigmaplot 8.0 (SPSS Inc.)
The final concentration of human Factor Xa was 2 nM in a Tris/NaCl buffer (pH 7.5) containing 0.25% (w/v) polyethylene glycol (MW 8000). The substrate employed was Pefachrome Xa.

human trypsin = experiment: Inhibition of serine protease activity, trypsin, chromogenic substrate Pefachrome Try; format: biochemical; conditions: 2 nM human trypsin, 300 μM substrate, pH 7.5
Protocol: as §1
The final concentration of human trypsin was 2 nM in a Tris/NaCl buffer (pH 7.5) containing 0.25% (w/v) bovine serum albumin and 20 μM CaCl2. The substrate used was Pefachrome Try.

[1] = target: T2, human thrombin (factor IIa, fIIa) (Homo sapiens, UniProt P00734); experiment: Inhibition of serine protease activity, thrombin, chromogenic substrate Pefachrome Th; format: biochemical; conditions: 2 nM human thrombin, 300 μM substrate, pH 8.3
T2 construct: purchased Haematologic Technologies Inc. (Essex Junction, Vt.)
Protocol: as §1
The final concentration of human thrombin was 2 nM in a Tris/NaCl buffer (pH 8.3) containing 0.125% (w/v) bovine serum albumin. The substrate used was Pefachrome Th.

[2] = test system: platelets (platelet rich plasma); experiment: Inhibition of platelet aggregation in platelet rich plasma (Chrono-log aggregometer); format: cell-based; conditions: human PRP; for inhibition at 250 µM: compound concentration 250 μM; for inhibition at 100 µM: compound concentration 100 μM
Protocol: Platelet poor plasma (PPP) was obtained by centrifuging the remainder of the sample after the platelets were removed at 800×g for about 10 minutes. The PRP was adjusted to a count of 280×10^9/L using a mixture of PRP and PPP. The platelets (200 μL) were incubated with the test compounds (25 μL) adjusted to various concentrations ([…]) for about 30 minutes at room temperature (approximate final platelet count in the incubation mixture of 250×10^9/L). The samples were incubated for about 3 minutes at about 37° C., and then transferred to the mixing wells of a Chrono-log 4 channel aggregometer (Chrono-log Corp., Havertown, Pa.). After baselines were established, the agonist (25 μL of 40 μM ADP (Sigma, St. Louis, Mo.) or 25 μL of 50 μg/mL and 10 μg/mL collagen (Helena Laboratories, Beaumont, Tex.) or 25 μL of 120 μM thrombin receptor activating peptide (TRAP) (Sigma)) was then added. Aggregation was monitored for 5 minutes at 37° C. with stirring (1000 rpm). The amplitude and slope of each tracing were calculated to determine the amount of aggregation. Control samples were performed using only solvent. The % reduction in aggregation was calculated for each sample compared to the proper solvent control.

[3] = test system: platelets (platelet rich plasma); experiment: as above; format: cell-based; conditions: compound concentration 500 μM, human PRP
[4] = agonist ADP 4 μM, read-out: % Reduction in Aggregation, ADP (4 μM)
[5] = agonist TRAP 12 μM, read-out: % Reduction in Aggregation, TRAP (12 μM)
[6] = agonist collagen 1 μg/mL, read-out: % Reduction in Aggregation, Collagen (1 μg/mL)
[7] = agonist collagen 5 μg/mL, read-out: % Reduction in Aggregation, Collagen (5 μg/mL)

T1 sequence (P00742 235-488 limits assumed): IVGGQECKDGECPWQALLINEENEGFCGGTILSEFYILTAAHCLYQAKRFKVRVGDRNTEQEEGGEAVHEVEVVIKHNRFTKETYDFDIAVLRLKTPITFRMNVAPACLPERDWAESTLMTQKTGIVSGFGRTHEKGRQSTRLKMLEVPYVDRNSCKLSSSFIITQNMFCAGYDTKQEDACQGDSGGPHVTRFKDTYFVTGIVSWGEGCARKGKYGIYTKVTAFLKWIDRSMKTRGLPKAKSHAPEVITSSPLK
T1 sequence (P00742 41-179 partner limits assumed): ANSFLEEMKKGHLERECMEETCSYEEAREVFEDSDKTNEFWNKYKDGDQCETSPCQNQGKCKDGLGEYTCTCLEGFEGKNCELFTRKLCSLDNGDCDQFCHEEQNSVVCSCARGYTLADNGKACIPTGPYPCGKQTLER

Cc1ncc(CNc2ccc(-c3ccccc3S(=O)(=O)NC(C)(C)C)cc2)c(CO)c1O [Compound 2, 4′-[(5-Hydroxy-4-hydroxymethyl-6-methyl-pyridin-3-ylmethyl) -amino]-biphenyl-2-sulfonic acid tert-butylamide]
IC50 (human Factor Xa (fXa)): 329 µM
IC50 (human trypsin): > 1000 µM
IC50 [1]: > 1 mM

Cc1ncc(CNc2ccc(-c3ccccc3S(N)(=O)=O)cc2)c(CO)c1O [Compound 3, 4′-[(5-Hydroxy-4-hydroxymethyl-6-methyl-pyridin-3-ylmethyl)-amino]-biphenyl-2-sulfonic acid amide]
IC50 (human Factor Xa (fXa)): > 1000 µM
IC50 (human trypsin): > 1000 µM
IC50 [1]: > 1 mM
inhibition at 250 µM [2, 4]: 0%
inhibition at 250 µM [2, 5]: 6%
inhibition at 250 µM [2, 6]: 0%
inhibition at 250 µM [2, 7]: 5%

Cc1ncc(CNC(=O)c2ccc(-c3ccccc3S(=O)(=O)NC(C)(C)C)cc2)c(CO)c1O [Compound 5, 2′-tert-Butylsulfamoyl-biphenyl-4-carboxylic acid (5-hydroxy-4-hydroxymethyl-6-methyl-pyridin-3-ylmethyl)-amide]
IC50 (human Factor Xa (fXa)): 362 µM
IC50 (human trypsin): > 1000 µM
IC50 [1]: > 1 mM

Cc1ncc(CNC(=O)c2ccc(-c3ccccc3S(N)(=O)=O)cc2)c(CO)c1O [Compound 6, 2′-Sulfamoyl-biphenyl-4-carboxylic acid (5-hydroxy-4-hydroxymethyl-6-methyl-pyridin-3-ylmethyl)-amide]
IC50 (human Factor Xa (fXa)): 306 µM
IC50 (human trypsin): > 1000 µM
IC50 [1]: > 1 mM
inhibition at 250 µM [2, 4]: 0%
inhibition at 250 µM [2, 5]: 1%
inhibition at 250 µM [2, 6]: 5%
inhibition at 250 µM [2, 7]: 0%

Cc1ncc(CO)c(CNc2ccc(-c3ccccc3S(=O)(=O)NC(C)(C)C)cc2)c1O [Compound 7, 4′-[(3-Hydroxy-5-hydroxymethyl-2-methyl-pyridin-4-ylmethyl)-amino]-biphenyl-2-sulfonic acid tert-butylamide]
IC50 (human Factor Xa (fXa)): 197 µM
IC50 (human trypsin): > 1000 µM
IC50 [1]: > 1 mM

Cc1ncc(CO)c(CNc2ccc(-c3ccccc3S(N)(=O)=O)cc2)c1O [Compound 8]
IC50 (human Factor Xa (fXa)): > 1000 µM
IC50 (human trypsin): > 1000 µM
IC50 [1]: > 1 mM

Cc1ncc(CNc2ccc(-c3ccccc3S(N)(=O)=O)cc2)c(CO)c1OCc1cccc(C(=N)N)c1 [Compound 14]
IC50 (human Factor Xa (fXa)): 15 µM
IC50 (human trypsin): 12 µM
IC50 [1]: 0.862 mM
inhibition at 250 µM [2, 4]: 10%
inhibition at 250 µM [2, 5]: 9%
inhibition at 250 µM [2, 6]: 15%
inhibition at 250 µM [2, 7]: 5%

Cc1ncc(CNc2ccc(-c3ccccc3S(N)(=O)=O)cn2)c(CO)c1OCc1cccc(C(=N)N)c1 [Compound 16]
IC50 (human Factor Xa (fXa)): 11 µM
IC50 (human trypsin): 11 µM
IC50 [1]: > 1 mM
inhibition at 250 µM [2, 4]: 3%
inhibition at 250 µM [2, 5]: 1.3%
inhibition at 250 µM [2, 6]: 14%
inhibition at 250 µM [2, 7]: 0%

Cc1ncc(CNc2cccc(-c3ccccc3S(N)(=O)=O)c2)c(CO)c1O [Compound 21, 3′-[(5-Hydroxy-4-hydroxymethyl-6-methyl-pyridin-3-ylmethyl)-amino]-biphenyl-2-sulfonic acid amide]
IC50 (human Factor Xa (fXa)): 326 µM
IC50 (human trypsin): > 1000 µM
IC50 [1]: > 1 mM
inhibition at 250 µM [2, 4]: 14%
inhibition at 250 µM [2, 5]: 0%
inhibition at 250 µM [2, 6]: 4%
inhibition at 250 µM [2, 7]: 0%

Cc1ncc(CNC(=O)c2ccc(-c3ccccc3S(N)(=O)=O)cc2)c(CO)c1OCc1cccc(C(=N)N)c1 [Compound 23]
IC50 (human Factor Xa (fXa)): 5 µM
IC50 (human trypsin): 24 µM
IC50 [1]: 0.097 mM

Cc1ncc(CO)c(CNc2ccc(-c3ccccc3S(N)(=O)=O)cc2)c1OCc1cccc(C(=N)N)c1 [Compound 25, 3-{5-Hydroxymethyl-2-methyl-4-[(2′-sulfamoyl-biphenyl-4-ylamino)-methyl]-pyridin-3-yloxymethyl}-benzamidine]
IC50 (human Factor Xa (fXa)): 4 µM
IC50 (human trypsin): 15 µM
IC50 [1]: > 1 mM

Cc1ncc(CO)c(CNc2cccc(-c3ccccc3S(N)(=O)=O)c2)c1OCc1ccc(C(=N)N)cc1 [Compound 28, 4-{5-Hydroxymethyl-2-methyl-4-[(2′-sulfamoyl-biphenyl-3-ylamino)-methyl]-pyridin-3-yloxymethyl}-benzamidine]
IC50 (human Factor Xa (fXa)): 17 µM
IC50 (human trypsin): 3 µM
IC50 [1]: 0.476 mM
inhibition at 250 µM [2, 4]: 26%
inhibition at 250 µM [2, 5]: 11%
inhibition at 250 µM [2, 6]: 10%
inhibition at 250 µM [2, 7]: 15%

Cc1ncc(CO)c(CNc2ccc(-c3ccccc3S(N)(=O)=O)cc2F)c1OCc1ccc(C(=N)N)cc1 [Compound 30, 4-{4-[(3-Fluoro-2′-sulfamoyl-biphenyl-4-ylamino)-methyl]-5-hydroxymethyl-2-methyl-pyridin-3-yloxymethyl}-benzamidine]
IC50 (human Factor Xa (fXa)): 18 µM
IC50 (human trypsin): 4 µM
IC50 [1]: 0.171 mM
inhibition at 100 µM [2, 4]: 23%
inhibition at 100 µM [2, 5]: 57%
inhibition at 100 µM [2, 6]: 57%
inhibition at 100 µM [2, 7]: 19%

Cc1ncc(CNc2ccc(-c3ccccc3S(N)(=O)=O)cn2)c(CO)c1O [Compound 31, 2-{6-[(5-Hydroxy-4-hydroxymethyl-6-methyl-pyridin-3-ylmethyl)-amino]-pyridin-3-yl}-benzenesulfonamide]
IC50 (human Factor Xa (fXa)): > 1000 µM
IC50 (human trypsin): > 1000 µM
IC50 [1]: > 1 mM

Cc1ncc(CO)c(CNc2cccc(-c3ccccc3S(N)(=O)=O)c2)c1O [Compound 32, 3′-[(3-Hydroxy-5-hydroxymethyl-2-methyl-pyridin-4-ylmethyl)-amino]-biphenyl-2-sulfoniamide]
IC50 (human trypsin): > 1000 µM
IC50 [1]: > 1 mM

Cc1ncc(CNc2ccc(C(=N)N)cc2)c(CO)c1O [Compound 33, reference compound]
inhibition at 500 µM [3, 4]: 4%
inhibition at 500 µM [3, 5]: 1%
inhibition at 500 µM [3, 7]: 15%
IC50 (human Factor Xa (fXa)): 105 µM
IC50 (human trypsin): 18 µM
IC50 [1]: 0.3 mM
inhibition at 500 µM ([2]; agonist collagen 1 μg/mL, compound concentration 500 μM, read-out: % Reduction in Aggregation, Collagen (1 μg/mL)): 5%

Cc1ncc(CNc2ccc(-c3ccc(C(=N)N)cc3)cc2)c(CO)c1O [Compound 34, reference compound]
IC50 (human Factor Xa (fXa)): 29 µM
IC50 (human trypsin): 4 µM
IC50 [1]: > 1 mM
inhibition at 250 µM [2, 4]: 63%
inhibition at 250 µM [2, 5]: 93%
inhibition at 250 µM [2, 6]: 41%
inhibition at 250 µM [2, 7]: 1%
